Reference: paper PMC10733463, “Berberine-microbiota interplay: orchestrating gut health through modulation of the gut microbiota and metabolic transformation into bioactive metabolites” (Frontiers in Pharmacology, 2023)

Experiments:
Caco-2 cells = test: Cell viability assay (neutral red uptake), Caco-2; assay type: cell-based, human; settings: 0.1 µg berberine/mL medium
Method: (§1) Caco-2 cells (human intestinal epithelial cells) were cultured in MEM (Gibco, Paisley, United Kingdom) supplemented with 10% Fetal Bovine Serum (FBS), 1% L-glutamine (Gibco), 1% MEM NEAA (Gibco) and 1% penicillin/streptomycin (P/S) (Gibco). T84 cells (human intestinal epithelial cells) were cultured in 1:1 DMEM/F12 (Gibco) supplemented with 10% FBS, 1% L-glutamine and 1% P/S (37°C, 5% CO2). The neutral red uptake assay was employed to evaluate the potential cytotoxicity of berberine ([Repetto et al., 2008]). Briefly, Caco-2 and T84 were seeded at 2 × 10^5 cells/well and 5 × 10^4 cells/well respectively in 96-well plates (Greiner Bio-one, Frickenhausen, Germany) and cultivated for 24 h in antibiotic-free medium (treatment medium) for attachment. […] A 10-fold dilution of sodium dodecyl sulfate (Sigma-Aldrich), ranging from 10 mg/mL to 10^−6 mg/mL was used a positive control. Cells were washed with 200 µL pre-warmed HBSS(+) (Gibco) and then treated with 150 µL of Neutral Red medium, consisting of 1:80 Neutral Red solution 0.33% (Sigma-Aldrich)/treatment medium for 3 h. Cells were washed in 200 µL HBSS(+) and treated with 100 µL of Neutral Red Desorb solution, consisting of 1% glacial acetic acid (Merck, Darmstadt, Germany), 50% ethanol (95%, Chem-Lab, Zedelgem, Belgium) and 49% deionized water.

T84 cells = test: Cell viability assay (neutral red uptake), T84; assay type: cell-based, human; settings: 0.1 µg berberine/mL medium
Method: as §1

COc1ccc2cc3[n+](cc2c1OC)CCc1cc2c(cc1-3)OCO2 [Berberine, Berberine chloride]
Cytotoxicity (Neutral Red Uptake) (Caco-2 cells): considered safe | Cytotoxicity (Neutral Red Uptake) (T84 cells): considered safe
